IC50 and Km data for two molecules are collected here from PMC12053652, “Transport and inhibition mechanisms of human creatine transporter” (Cell Discovery, 2025).

For series [1], the target named is T1, human creatine transporter (CRT) (Homo sapiens, UniProt P48029).
T1 construct: gene SLC6A8; full-length wild-type
T1 sequence (P48029 1-635): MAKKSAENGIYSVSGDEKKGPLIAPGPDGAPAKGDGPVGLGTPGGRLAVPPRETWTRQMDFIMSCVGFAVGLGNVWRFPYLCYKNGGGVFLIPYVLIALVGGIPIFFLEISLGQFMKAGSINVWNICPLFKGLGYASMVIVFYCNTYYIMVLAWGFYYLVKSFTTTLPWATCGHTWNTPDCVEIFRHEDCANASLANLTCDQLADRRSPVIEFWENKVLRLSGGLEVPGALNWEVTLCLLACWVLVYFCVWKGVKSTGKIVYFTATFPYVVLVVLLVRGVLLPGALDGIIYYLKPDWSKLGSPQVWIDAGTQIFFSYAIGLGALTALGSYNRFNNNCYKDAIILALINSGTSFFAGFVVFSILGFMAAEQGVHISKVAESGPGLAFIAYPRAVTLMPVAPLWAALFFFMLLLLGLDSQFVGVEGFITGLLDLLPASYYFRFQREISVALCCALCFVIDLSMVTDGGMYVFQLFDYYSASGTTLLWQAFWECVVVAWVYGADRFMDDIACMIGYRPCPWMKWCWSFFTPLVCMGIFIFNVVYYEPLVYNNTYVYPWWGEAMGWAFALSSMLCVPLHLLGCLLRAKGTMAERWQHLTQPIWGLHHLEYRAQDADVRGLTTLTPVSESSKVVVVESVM
Nature of the series: cryo-EM structure ([…] Å); IC50 from […]creatine uptake inhibition in HEK293 cells. It counts as cell-based.

Substrate in series [2]: CN(CC(=O)O)C(=N)N
Nature of the series: cells, lysate or membranes. It counts as cell-based, Homo sapiens. Particulars: Na+ and Cl- (Na+[…] and Cl- in the structure) central binding site; Tyr148, Ser417, Ala69, Phe315, Gly73; guanidine group surrounded by Phe68, Tyr148, Phe315; contacts Na+[…].

In series [1], `N=C(N)NCCC(=O)O` [RGX, RGX-202] came in with a 50% inhibitory concentration (IC50) of 53 µM.

B1: human creatine transporter (CRT) (Homo sapiens) (protein)
chain: MAKKSAENGIYSVSGDEKKGPLIAPGPDGAPAKGDGPVGLGTPGGRLAVPPRETWTRQMDFIMSCVGFAVGLGNVWRFPYLCYKNGGGVFLIPYVLIALVGGIPIFFLEISLGQFMKAGSINVWNICPLFKGLGYASMVIVFYCNTYYIMVLAWGFYYLVKSFTTTLPWATCGHTWNTPDCVEIFRHEDCANASLANLTCDQLADRRSPVIEFWENKVLRLSGGLEVPGALNWEVTLCLLACWVLVYFCVWKGVKSTGKIVYFTATFPYVVLVVLLVRGVLLPGALDGIIYYLKPDWSKLGSPQVWIDAGTQIFFSYAIGLGALTALGSYNRFNNNCYKDAIILALINSGTSFFAGFVVFSILGFMAAEQGVHISKVAESGPGLAFIAYPRAVTLMPVAPLWAALFFFMLLLLGLDSQFVGVEGFITGLLDLLPASYYFRFQREISVALCCALCFVIDLSMVTDGGMYVFQLFDYYSASGTTLLWQAFWECVVVAWVYGADRFMDDIACMIGYRPCPWMKWCWSFFTPLVCMGIFIFNVVYYEPLVYNNTYVYPWWGEAMGWAFALSSMLCVPLHLLGCLLRAKGTMAERWQHLTQPIWGLHHLEYRAQDADVRGLTTLTPVSESSKVVVVESVM
notes: full-length wild-type
In the case of B1, in series [2], the Km is 106.3 µM.

In general, IC50 refers to the concentration at which inhibition is half-maximal. For orientation: Km means the concentration of substrate that gives half-maximal velocity.
